Reference: ChEMBL document CHEMBL5321210, “N-adamantyl-anthranil amide derivatives: New selective ligands for the cannabinoid receptor subtype 2 (CB2R)” (Eur J Med Chem, 2023)
Activity calls are given as the source filed them. No cut-off for these calls is given here.

Assays:
THP-1 [1] = assay: Antiinflammatory activity in PMA-differentiated human THP-1 macrophages assessed as reduction in TNF-alpha production at 10 uM incubated for 24 hrs by ELISA coupled qRT-PCR analysis relative to control; assay type: functional; design: scale not given: the % may be the effect or the level left
THP-1 [2] = assay: Antiinflammatory activity in human THP-1 monocytes assessed as increase in IL-10 production at 10 uM incubated for 24 hrs in the presence of N-(adamantan-1-yl)-4-(pentylamino)-[1,1'-biphenyl]-3-carboxamide by ELISA coupled qRT-PCR analysis; assay type: functional, cell-based
THP-1 [3] = assay: Antiinflammatory against LPS-activated human THP-1 monocytes assessed as increase in IL-4 production at 10 uM incubated for 24 hrs in the presence of JTE907 by ELISA coupled qRT-PCR analysis; assay type: functional, cell-based
THP-1 [4] = assay: Antiinflammatory activity in PMA-differentiated human THP-1 macrophages assessed as decrease in IFN-gamma production at 10 uM incubated for 24 hrs in the presence of JTE907 by ELISA coupled qRT-PCR analysis; assay type: functional, cell-based
THP-1 [5] = assay: Antiinflammatory activity in human THP-1 monocytes assessed as decrease in TNF-alpha production at 10 uM incubated for 24 hrs in the presence of N-(adamantan-1-yl)-4-(pentylamino)-[1,1'-biphenyl]-3-carboxamide by ELISA coupled qRT-PCR analysis; assay type: functional, cell-based
THP-1 [6] = assay: Antiinflammatory activity against LPS-activated PMA-differentiated human THP-1 monocytes assessed as decrease in TNF-alpha production at 10 uM incubated for 24 hrs in the presence of N-(adamantan-1-yl)-4-(pentylamino)-[1,1'-biphenyl]-3-carboxamide by ELISA coupled qRT-PCR analysis; assay type: functional, cell-based
THP-1 [7] = assay: Antiinflammatory activity against LPS-activated human THP-1 monocytes assessed as decrease in TNF-alpha production at 10 uM incubated for 24 hrs in the presence of N-(adamantan-1-yl)-4-(pentylamino)-[1,1'-biphenyl]-3-carboxamide by ELISA coupled qRT-PCR analysis; assay type: functional, cell-based
THP-1 [8] = assay: Antiinflammatory activity in LPS-activated PMA-differentiated human THP-1 macrophages assessed as decrease in IFN-gamma production at 10 uM incubated for 24 hrs in the presence of JTE907 by ELISA coupled qRT-PCR analysis; assay type: functional, cell-based
THP-1 [9] = assay: Antiinflammatory activity in PMA-differentiated human THP-1 monocytes assessed as increase in IL-4 production at 10 uM incubated for 24 hrs in the presence of N-(adamantan-1-yl)-4-(pentylamino)-[1,1'-biphenyl]-3-carboxamide by ELISA coupled qRT-PCR analysis; assay type: functional, cell-based
THP-1 [10] = assay: Antiinflammatory activity against LPS-activated human THP-1 monocytes assessed as increase in IL-10 production at 10 uM incubated for 24 hrs in the presence of N-(adamantan-1-yl)-4-(pentylamino)-[1,1'-biphenyl]-3-carboxamide by ELISA coupled qRT-PCR analysis; assay type: functional, cell-based
THP-1 [11] = assay: Antiinflammatory activity in human THP-1 monocytes assessed as increase in IL-4 production at 10 uM incubated for 24 hrs by ELISA coupled qRT-PCR analysis; assay type: functional, cell-based
THP-1 [12] = assay: Antiinflammatory activity in PMA-differentiated human THP-1 monocytes assessed as decrease in IFN-gamma production at 10 uM incubated for 24 hrs in the presence of N-(adamantan-1-yl)-4-(pentylamino)-[1,1'-biphenyl]-3-carboxamide by ELISA coupled qRT-PCR analysis; assay type: functional, cell-based
THP-1 [13] = assay: Antiinflammatory activity against LPS-activated PMA-differentiated human THP-1 macrophages assessed as increase in IL-4 production at 10 uM incubated for 24 hrs by ELISA coupled qRT-PCR analysis; assay type: functional, cell-based
THP-1 [14] = assay: Antiinflammatory activity in LPS-activated PMA-differentiated human THP-1 macrophages assessed as decrease in IL-1beta production at 10 uM incubated for 24 hrs in the presence of JTE907 by ELISA coupled qRT-PCR analysis; assay type: functional, cell-based
THP-1 [15] = assay: Antiinflammatory activity in PMA-differentiated human THP-1 macrophages assessed as increase in IL-10 production at 10 uM incubated for 24 hrs in the presence of JTE907 by ELISA coupled qRT-PCR analysis; assay type: functional, cell-based
THP-1 [16] = assay: Antiinflammatory activity against LPS-activated PMA-differentiated human THP-1 macrophages assessed as increase in IL-4 production at 1 to 10 uM incubated for 24 hrs by ELISA coupled qRT-PCR analysis; assay type: functional, cell-based; conditions: dose 1-10 µM
THP-1 [17] = assay: Antiinflammatory activity in PMA-differentiated human THP-1 macrophages assessed as decrease in IL-1beta production at 1 to 10 uM incubated for 24 hrs in the presence of JTE907 by ELISA coupled qRT-PCR analysis; assay type: functional, cell-based; conditions: dose 1-10 µM
THP-1 [18] = assay: Antiinflammatory activity in LPS-activated PMA-differentiated human THP-1 macrophages assessed as decrease in IFN-gamma production at 1 to 10 uM incubated for 24 hrs in the presence of JTE907 by ELISA coupled qRT-PCR analysis; assay type: functional, cell-based; conditions: dose 1-10 µM
THP-1 [19] = assay: Antiinflammatory activity in human THP-1 monocytes assessed as increase in IL-10 production incubated for 24 hrs by ELISA coupled qRT-PCR analysis; assay type: functional, cell-based; conditions: dose 1-10 µM
THP-1 [20] = assay: Antiinflammatory activity in LPS-activated PMA-differentiated human THP-1 macrophages assessed as increase in IL-10 production at 1 to 10 uM incubated for 24 hrs in the presence of JTE907 by ELISA coupled qRT-PCR analysis; assay type: functional, cell-based; conditions: dose 1-10 µM
THP-1 [21] = assay: Antiinflammatory activity in PMA-differentiated human THP-1 macrophages assessed as decrease in IFN-gamma production at 1 to 10 uM incubated for 24 hrs in the presence of JTE907 by ELISA coupled qRT-PCR analysis; assay type: functional, cell-based; conditions: dose 1-10 µM
THP-1 [22] = assay: Antiinflammatory against LPS-activated human THP-1 monocytes assessed as decrease in IFN-gamma production at 1 to 10 uM incubated for 24 hrs in the presence of JTE907 by ELISA coupled qRT-PCR analysis; assay type: functional, cell-based; conditions: dose 1-10 µM
THP-1 [23] = assay: Antiinflammatory activity in human THP-1 monocytes assessed as increase in IL-10 production at 1 to 10 uM incubated for 24 hrs in the presence of JTE907 by ELISA coupled qRT-PCR analysis; assay type: functional, cell-based; conditions: dose 1-10 µM
THP-1 [24] = assay: Antiinflammatory activity in LPS-activated PMA-differentiated human THP-1 macrophages assessed as decrease in TNF-alpha production at 1 to 10 uM incubated for 24 hrs in the presence of JTE907 by ELISA coupled qRT-PCR analysis; assay type: functional, cell-based; conditions: dose 1-10 µM
THP-1 [25] = assay: Antiinflammatory against LPS-activated human THP-1 monocytes assessed as increase in IL-10 production at 1 to 10 uM incubated for 24 hrs in the presence of JTE907 by ELISA coupled qRT-PCR analysis; assay type: functional, cell-based; conditions: dose 1-10 µM
Cannabinoid receptor 2 = Cannabinoid receptor 2 (Homo sapiens, UniProt P34972); assay: Agonist activity at human CB2 receptor expressed in CHO-K1 cells assessed as inhibition of NKH-477 induced cAMP production by measuring maximal efficacy incubated for 30 mins by luminescence based analysis relative to control; assay type: functional, cell-based; conditions: filed as agonist
THP-1 [26] = assay: Antiinflammatory activity in human THP-1 monocytes assessed as decrease in TNF-alpha production incubated for 24 hrs by ELISA coupled qRT-PCR analysis; assay type: functional, cell-based; conditions: dose 1-10 µM

Sequence of Cannabinoid receptor 2 (P34972 whole entry): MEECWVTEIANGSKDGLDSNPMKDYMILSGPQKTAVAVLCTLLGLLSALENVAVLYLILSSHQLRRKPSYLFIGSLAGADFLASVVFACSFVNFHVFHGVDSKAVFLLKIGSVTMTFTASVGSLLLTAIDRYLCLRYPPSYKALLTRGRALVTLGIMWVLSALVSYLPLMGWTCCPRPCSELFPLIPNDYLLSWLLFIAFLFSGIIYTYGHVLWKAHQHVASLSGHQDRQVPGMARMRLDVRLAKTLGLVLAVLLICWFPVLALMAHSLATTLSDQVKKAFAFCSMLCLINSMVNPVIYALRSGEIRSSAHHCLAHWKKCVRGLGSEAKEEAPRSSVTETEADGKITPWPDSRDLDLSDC

O=C(NC1CCCCC1)c1cn(CCN2CCOCC2)c2cc(Cl)ccc2c1=O
Activity (THP-1 [1]): 50% | Activity (THP-1 [2]): inactive | Activity (THP-1 [3]): inactive | Activity (THP-1 [4]): inactive | Activity (THP-1 [5]): inactive | Activity (THP-1 [6]): inactive | Activity (THP-1 [7]): inactive | Activity (THP-1 [8]): inactive | Activity (THP-1 [9]): inactive | Activity (THP-1 [10]): inactive | Activity (THP-1 [11]): Active | Activity (THP-1 [12]): inactive | Activity (THP-1 [13]): Active | Activity (THP-1 [14]): inactive | Activity (THP-1 [15]): inactive

CCCCCNc1ccccc1C(=O)NC12CC3CC(CC(C3)C1)C2
Activity (THP-1 [16]): Active | Activity (THP-1 [17]): inactive | Activity (THP-1 [18]): inactive | Activity (THP-1 [19]): Dose-Dependent Effect | Activity (THP-1 [20]): inactive | Activity (THP-1 [21]): inactive | Activity (THP-1 [22]): inactive | Activity (THP-1 [23]): inactive | Activity (THP-1 [24]): inactive | Activity (THP-1 [25]): inactive | Emax (Cannabinoid receptor 2): 77.2% | Activity (THP-1 [26]): Dose-Dependent Effect
